Experiment [1] has as its target Human KDR (residues 790-1356) (Homo sapiens (Human), UniProt P35968). Nature of the experiment: Human KDR kinase assay, HTRF KinEase (Example B-2). In kind it is biochemical. As to conditions: protocol of Example B-2 (other compounds). In short, it runs like this:
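Ten compound concentrations (3% DMSO final) were pre-plated, then KDR (790-1356) with biotinylated peptide in Mg/Mn/DTT buffer was added; ATP at Km (4.0 μM) started a 40 min room-temperature reaction. Detection used Eu-TK antibody and SA-XL665 in EDTA buffer; activity normalized to DMSO and reference inhibitor, IC50 by logistic fit.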
Background: Time-resolved FRET reads energy transfer from a long-lived donor to a nearby acceptor.

Experiment [2] has as its target Human MER (residues 528-999) (Homo sapiens (Human), UniProt Q12866). The experiment can be described thus: Human Mer kinase assay, HTRF KinEase (Example C-2). Type of experiment: biochemical. As to conditions: protocol of Example C-2 (other compounds). The method in brief: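 Recombinant MER 528-999 (1 ng/well) in buffer with 5 mM MgCl2 and 1 mM DTT was reacted with biotinylated peptide and ATP at Km (40 μM) for 60 min at room temperature. EDTA stop with SA-XL665 and Eu3+ TK antibody, then 665/620 nm HTRF read; IC50 from 4-parameter fit.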

For experiment [3], the target named is Human MET (residues 956-1390) (Homo sapiens (Human), UniProt P08581). The experiment can be described thus: Human Met kinase assay, HTRF KinEase (Example D-2). As to conditions: protocol of Example D-2 (other compounds); read-out: c-Met IC50. Type of experiment: biochemical. The method in brief: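 MET kinase domain (956-1390), 0.1 ng/well, in buffer with 5 mM MgCl2, 1 mM DTT and 1 mM MnCl2, phosphorylated a biotinylated peptide at ATP Km for 40 min at RT; 10 concentrations, 3% DMSO final. EDTA-stopped HTRF read after 60 min; IC50 from a 4-parameter logistic fit.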
Chain of Human MET (residues 956-1390) (P08581 956-1390): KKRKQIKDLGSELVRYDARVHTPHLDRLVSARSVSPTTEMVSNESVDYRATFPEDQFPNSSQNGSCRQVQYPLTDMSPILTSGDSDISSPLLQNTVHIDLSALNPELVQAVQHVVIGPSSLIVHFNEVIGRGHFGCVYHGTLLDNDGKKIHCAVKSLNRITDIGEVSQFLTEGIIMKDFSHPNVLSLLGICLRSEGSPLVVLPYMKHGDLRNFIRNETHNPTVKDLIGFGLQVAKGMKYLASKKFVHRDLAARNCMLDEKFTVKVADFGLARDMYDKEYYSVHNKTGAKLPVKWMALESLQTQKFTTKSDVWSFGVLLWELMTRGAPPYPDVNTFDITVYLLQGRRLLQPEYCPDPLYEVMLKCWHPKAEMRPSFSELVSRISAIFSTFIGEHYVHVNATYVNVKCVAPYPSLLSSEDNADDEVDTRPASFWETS

The target of experiment [4] is AXL (phospho-AXL, Gas6-stimulated A-172 glioblastoma cells) (Homo sapiens (Human), UniProt P30530). The experiment can be described thus: AXL autophosphorylation ELISA in A-172 cells (Example E). Type of experiment: cell-based. The settings on record: cellular activity; AXL autophosphorylation ELISA in A-172 cells; read-out: Axl IC50. In short, it runs like this:
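Phospho-AXL was measured by ELISA in lysates of Gas6-stimulated A-172 cells, starved 24 h in serum-free medium and exposed 1 h to an 8-point compound dilution at 0.3% DMSO.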
In general terms: An ELISA detects its analyte on a solid surface through an enzyme-linked reagent.

Chain of AXL (phospho-AXL, Gas6-stimulated A-172 glioblastoma cells) (P30530 26-894): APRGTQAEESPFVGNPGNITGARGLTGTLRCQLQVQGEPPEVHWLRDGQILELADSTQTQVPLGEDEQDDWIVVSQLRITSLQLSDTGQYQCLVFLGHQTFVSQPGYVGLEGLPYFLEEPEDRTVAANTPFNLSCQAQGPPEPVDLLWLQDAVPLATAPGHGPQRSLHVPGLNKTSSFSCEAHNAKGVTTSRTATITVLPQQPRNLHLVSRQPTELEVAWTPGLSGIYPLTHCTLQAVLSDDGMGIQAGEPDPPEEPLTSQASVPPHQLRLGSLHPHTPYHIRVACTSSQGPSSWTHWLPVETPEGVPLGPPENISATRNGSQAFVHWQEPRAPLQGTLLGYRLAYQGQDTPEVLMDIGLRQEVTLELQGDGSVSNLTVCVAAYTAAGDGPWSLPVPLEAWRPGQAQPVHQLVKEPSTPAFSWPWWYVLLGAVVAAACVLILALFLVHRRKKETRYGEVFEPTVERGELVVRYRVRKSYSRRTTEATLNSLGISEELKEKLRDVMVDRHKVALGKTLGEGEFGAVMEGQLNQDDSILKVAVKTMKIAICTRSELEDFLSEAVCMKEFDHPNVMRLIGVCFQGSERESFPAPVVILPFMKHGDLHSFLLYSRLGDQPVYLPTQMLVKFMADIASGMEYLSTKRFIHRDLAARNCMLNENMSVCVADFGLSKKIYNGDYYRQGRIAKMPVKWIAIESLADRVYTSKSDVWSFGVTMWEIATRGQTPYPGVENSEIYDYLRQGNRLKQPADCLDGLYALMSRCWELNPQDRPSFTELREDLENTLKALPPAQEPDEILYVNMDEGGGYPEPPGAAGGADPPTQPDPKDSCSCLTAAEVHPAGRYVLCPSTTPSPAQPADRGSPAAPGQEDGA
Chain of Human KDR (residues 790-1356) (P35968 790-1356): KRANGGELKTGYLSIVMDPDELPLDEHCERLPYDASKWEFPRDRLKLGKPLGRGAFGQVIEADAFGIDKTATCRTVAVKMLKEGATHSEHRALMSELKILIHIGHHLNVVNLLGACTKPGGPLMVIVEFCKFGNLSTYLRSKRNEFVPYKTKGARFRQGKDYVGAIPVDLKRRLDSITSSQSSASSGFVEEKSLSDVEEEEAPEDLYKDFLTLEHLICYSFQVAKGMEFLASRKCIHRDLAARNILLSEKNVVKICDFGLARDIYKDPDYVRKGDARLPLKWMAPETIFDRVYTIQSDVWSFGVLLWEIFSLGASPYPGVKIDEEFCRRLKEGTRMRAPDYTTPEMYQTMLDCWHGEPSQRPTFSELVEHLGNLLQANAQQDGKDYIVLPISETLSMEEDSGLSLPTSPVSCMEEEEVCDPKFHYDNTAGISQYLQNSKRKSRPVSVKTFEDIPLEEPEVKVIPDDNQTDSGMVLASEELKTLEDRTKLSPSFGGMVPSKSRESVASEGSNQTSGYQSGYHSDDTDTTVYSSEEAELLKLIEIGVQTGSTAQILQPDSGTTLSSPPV
Chain of Human MER (residues 528-999) (Q12866 528-999): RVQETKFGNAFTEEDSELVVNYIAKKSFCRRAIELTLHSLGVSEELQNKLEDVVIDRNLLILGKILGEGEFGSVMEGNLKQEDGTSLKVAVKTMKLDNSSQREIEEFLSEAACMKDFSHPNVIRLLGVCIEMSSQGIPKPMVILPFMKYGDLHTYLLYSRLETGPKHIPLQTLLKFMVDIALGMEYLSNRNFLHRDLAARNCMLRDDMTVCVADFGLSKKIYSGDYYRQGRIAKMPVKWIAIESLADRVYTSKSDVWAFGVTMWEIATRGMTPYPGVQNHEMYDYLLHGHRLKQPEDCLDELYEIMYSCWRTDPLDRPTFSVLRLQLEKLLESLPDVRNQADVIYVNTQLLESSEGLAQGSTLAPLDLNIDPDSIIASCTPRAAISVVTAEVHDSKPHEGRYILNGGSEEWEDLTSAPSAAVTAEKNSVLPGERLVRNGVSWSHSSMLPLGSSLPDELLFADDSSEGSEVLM

By IC50 is commonly meant the midpoint of a concentration-inhibition curve. Regarding `COc1cc2nccc(Oc3ncc(NC(=O)c4cn(C5CC5)cc(-c5ccc(F)cc5)c4=O)cc3F)c2cc1OC` [Compound 399, 1-cyclopropyl-N-[6-(6,7-dimethoxyquinolin-4-yl)oxy-5-fluoropyridin-3-yl]-5-(4-fluorophenyl)-4-oxopyridine-3-carboxamide], the IC50 in experiment [1] was more than 0.3 µM; in experiment [2] it was less than 0.1 µM; in experiment [3], less than 0.1 µM; in experiment [4] it was less than 0.1 µM.

The values are drawn from US12371428B2 (Exelixis, Inc., priority 2019, dated 2025).
